Results as given in patent US20120323009A1, “PRODUCTION METHOD OF REDUCED PYRROLOQUINOLINE QUINONE” (MITSUBISHI GAS CHEMICAL COMPANY, INC., priority 2010, published 2012).

How the values were obtained:
[1] = Storage test of reduced PQQ (oxidation to oxidized PQQ); type: physicochemical
Experimental: In Examples and Comparative Examples, the UV measurements were performed on a HITACHI U-2000 Spectrophotometer.
In 500 g of water, […] of pyrroloquinoline quinone disodium was dissolved to a concentration of 0.01 mol/L. In 100 g of water, 3.51 g of L-ascorbic acid was dissolved to a concentration of 0.2 mol/L.
20 g of the pyrroloquinoline quinone disodium solution mentioned above having a concentration of 0.01 mol/L (pH 3.5) was mixed with 20 g of an L-ascorbic acid solution having a concentration of 0.2 mol/L at room temperature. The molar ratio of L-ascorbic acid is 20 with respect to pyrroloquinoline quinone. The pH of the solution was 2 as measured with a pH test strip. The mixed solution was allowed to react at room temperature overnight (pH 2). After the reaction, a solid of the reduced form was precipitated. Under this condition, it is believed that at least 15-fold moles of L-ascorbic acid is present, even allowing for the amounts consumed in the reduction reaction and in air oxidization.
The solid of the reduced form obtained in Example 6 was separated through centrifugation. The supernatant was removed, and the solid was washed with water. This process removed L-ascorbic acid. An aqueous sodium hydroxide solution was added thereto to adjust the value of pH to 7. All the reduced form was converted to the oxidized form in 30 minutes.
1 g of a pyrroloquinoline quinone disodium solution having a concentration of 0.01 mol/L (pH 3.5) was mixed with 1 g of an L-ascorbic acid solution having a concentration of 0.014 mol/L. When 1 g of this mixed solution was transferred to a 15-ml container and brought into contact with air, the solution included 14% of oxidized PQQ (pH 3). After this oxidized PQQ-containing reduced PQQ was left at 30° C. for one week, 18% of oxidized PQQ was included.

[2] = Non-patent document 3; cited from earlier work

O=C(O)c1cc(C(=O)O)c2c(n1)c(O)c(O)c1cc(C(=O)O)[nH]c12 [reduced PQQ, reduced pyrroloquinoline quinone]
time in which all the reduced form was converted to the oxidized form ([1]; Comparative Example 3: solid washed with water, L-ascorbic acid removed, pH adjusted to 7 with aqueous sodium hydroxide): 30 min
state of the reduced form after storage ([1]; Example 7: aqueous reaction solution, pH 2, at least 15-fold moles of L-ascorbic acid present, stored at room temperature for one week): maintained in the reduced state
oxidized PQQ included ([1]; Example 8: 0.01 mol/L PQQ disodium + 0.014 mol/L L-ascorbic acid mixed solution, pH 3, brought into contact with air, before storage): 14%
oxidized PQQ included ([1]; Example 8: same solution after being left at 30° C. for one week): 18%
antioxidative activity compared with ascorbic acid [2]: greater antioxidative activity than that exhibited by ascorbic acid
antioxidative activity compared with conventional PQQ [2]: extremely higher antioxidative activity than that exhibited by the conventional PQQ
